Data from US11827637B2, “Azaindole derivatives and their use as ERK kinase inhibitors” (AGV Discovery, priority 2022, dated 2023).
Several values for one entry are separate records, joined by “and”; a condition that tells them apart may be missing. Equal values may be shown once.

Tests used:
ERK2 (MAPK1) = target: T1, ERK2 (MAPK1) (Homo sapiens, UniProt P28482); assay: ERK2 (MAPK1) enzymatic assay (Z′-Lyte); type: biochemical
T1 construct: purchased Life technologies
Method: To assess the capacity of compounds to inhibit ERK2 enzymatic activity, Z′-Lyte biochemical assay from Life technologies was used according to manufacturer's instructions. Briefly, black 384-well plates containing 100 nl of 100× compound solution in 100% DMSO, 2.4 μl kinase buffer, 5 μl 2×MAPK1 (ERK2)/Ser/Thr 03 mixture and 2.5 μl 4×ATP solution were used. Plates were shaken for 30 seconds and incubated for 60 minutes at room temperature. Then, 5 μl of a 1:1024 dilution of Development Reagent A was added. Plates were shaken for 30 seconds and incubated for 60 minutes at room temperature. A plate reader was used to read fluorescence. […] Kinase buffer consisted of 50 mM HEPES pH 7.5, 0.01% BRIJ-35, 10 mM MgCl2, 1 mM EGTA.

[1] = tested on: A375 cells (malignant melanoma); assay: Cell line proliferation assay (MTT, A375); type: cell-based; details: Homo sapiens, A-375, 72 hours
Method: A cell line assay was used to determine the capacity of compounds to inhibit cell proliferation. A375 cells (malignant melanoma) were grown to near 80% confluence and seeded at 3000 cells per 100 μl per well in DMEM with 10% FBS in 96-well flat bottom plates. Cells were incubated for 24 hours at 37° C. under 5% CO2. 100 μl compound solutions were added to cells and incubated for 72 hours at 37° C. Total volume of media was 200 μl per well. Compounds were screened in 0.15% DMSO (final) using 10 titration points in duplicate. Negative control wells consisted of vehicle only (0.15% DMSO in 10% FBS DMEM). After 72 hours of compound treatment, SDS 1% (final) was added to positive control wells for 15 minutes at 37° C. Then, medium was discarded and replaced by 100 μl per well of a MTT solution (3-[4.5-dimethylthiazol-2-yl]-2.5-diphenyltetrazolium bromide) (Sigma, Cat #M5655) at 0.5 mg/ml in 10% FBS DMEM. Cells were incubated for 4 hours at 37° C. MTT reaction was stopped and homogenized by the addition of 100 μl per well of SDS 10% 0.01M HCl. After 16 hours at 37° C., absorbance was measured at 570 nm in a Bio-Tek plate reader (PowerWave HT). […] Analysis was performed using GraphPad Prism software.

hERG channel = target: T2, hERG channel (Homo sapiens, UniProt Q12809); assay: hERG channel inhibition assay (patch clamp); type: cell-based; details: whole-cell patch clamp, CHO cell line expressing hERG
T2 construct: a Chinese Hamster Ovary cell line stably expressing the full-length ion channel; expressed in transfected cells; host or cells: Chinese Hamster Ovary cell line
T2 sequence (Q12809 whole entry): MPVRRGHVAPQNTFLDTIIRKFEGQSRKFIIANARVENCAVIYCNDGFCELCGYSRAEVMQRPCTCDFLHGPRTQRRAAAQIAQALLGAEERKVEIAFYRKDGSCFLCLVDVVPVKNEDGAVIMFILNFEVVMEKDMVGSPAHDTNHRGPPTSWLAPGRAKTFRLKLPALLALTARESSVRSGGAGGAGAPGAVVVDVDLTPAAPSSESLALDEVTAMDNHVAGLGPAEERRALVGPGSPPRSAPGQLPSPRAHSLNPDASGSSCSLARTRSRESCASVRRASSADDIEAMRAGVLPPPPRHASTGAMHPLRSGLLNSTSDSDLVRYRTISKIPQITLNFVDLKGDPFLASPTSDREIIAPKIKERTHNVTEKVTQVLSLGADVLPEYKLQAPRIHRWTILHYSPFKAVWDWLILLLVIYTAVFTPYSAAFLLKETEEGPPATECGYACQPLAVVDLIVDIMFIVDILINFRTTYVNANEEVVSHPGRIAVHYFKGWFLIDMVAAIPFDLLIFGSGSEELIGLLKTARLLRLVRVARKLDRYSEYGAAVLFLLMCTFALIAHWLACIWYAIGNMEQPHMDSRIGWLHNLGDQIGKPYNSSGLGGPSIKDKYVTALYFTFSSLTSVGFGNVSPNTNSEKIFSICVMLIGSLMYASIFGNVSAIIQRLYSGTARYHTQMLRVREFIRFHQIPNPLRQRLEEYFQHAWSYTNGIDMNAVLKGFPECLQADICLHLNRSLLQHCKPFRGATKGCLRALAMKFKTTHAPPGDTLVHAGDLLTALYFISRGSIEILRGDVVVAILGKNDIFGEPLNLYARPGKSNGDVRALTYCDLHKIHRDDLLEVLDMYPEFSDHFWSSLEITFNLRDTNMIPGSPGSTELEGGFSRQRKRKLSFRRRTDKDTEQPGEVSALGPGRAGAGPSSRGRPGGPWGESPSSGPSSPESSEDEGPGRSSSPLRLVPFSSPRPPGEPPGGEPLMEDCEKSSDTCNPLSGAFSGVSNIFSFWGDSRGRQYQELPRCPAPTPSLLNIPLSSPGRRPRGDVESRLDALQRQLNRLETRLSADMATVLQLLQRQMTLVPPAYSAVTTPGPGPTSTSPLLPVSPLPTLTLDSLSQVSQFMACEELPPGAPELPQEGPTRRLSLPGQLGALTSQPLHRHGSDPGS
Method: Compounds were used as a 10 mM stock in DMSO before dilution in HEPES-buffered saline to 30 μM. 6-point concentration-response curves were generated using 3.16-fold serial dilutions from the top test concentration. Electrophysiological recordings were made from a Chinese Hamster Ovary cell line stably expressing the full-length ion channel. Single cell ionic currents were measured in whole-cell configuration at room temperature (21-23° C.) using a Patchliner (Nanion Technologies). The internal solution for hERG contained (mM): 120 KF, 20 KCl, 10 EGTA, 10 HEPES and was buffered to pH 7.3. The external solution (HEPES-buffered saline, HEPES-buffered saline) contained (mM): 138 NaCl, 4.5 KCl, 1.8 CaCl2), 1.0 MgCl2, 10 HEPES, 10 glucose, buffered to pH 7.4. […] Currents were measured from the step and referenced to the holding current. Compounds were then incubated for 2 minutes to achieve steady state prior to addition of the next concentration.

CYP 3A4 = target: T3, CYP 3A4 (Homo sapiens, UniProt P08684); assay: CYP 3A4 inhibition assay in human hepatocytes; type: in vitro ADME; details: cryopreserved human hepatocytes, midazolam probe substrate, 10 min
T3 construct: endogenous in cells; host or cells: cryopreserved human hepatocytes
T3 sequence (P08684 whole entry): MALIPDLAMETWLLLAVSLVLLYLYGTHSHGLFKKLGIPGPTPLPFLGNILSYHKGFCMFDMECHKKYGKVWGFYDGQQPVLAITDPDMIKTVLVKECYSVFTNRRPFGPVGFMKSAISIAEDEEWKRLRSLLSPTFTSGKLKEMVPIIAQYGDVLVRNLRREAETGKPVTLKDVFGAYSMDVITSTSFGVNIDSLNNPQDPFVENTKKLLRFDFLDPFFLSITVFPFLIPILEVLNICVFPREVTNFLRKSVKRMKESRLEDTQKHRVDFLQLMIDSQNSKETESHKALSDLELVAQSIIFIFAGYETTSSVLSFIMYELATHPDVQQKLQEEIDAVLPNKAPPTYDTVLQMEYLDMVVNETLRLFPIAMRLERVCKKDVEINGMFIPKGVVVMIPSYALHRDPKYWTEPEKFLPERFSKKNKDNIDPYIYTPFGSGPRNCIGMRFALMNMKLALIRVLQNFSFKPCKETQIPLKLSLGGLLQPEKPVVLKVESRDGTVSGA
Method: To assess the capacity of compounds to inhibit CYP 3A4 enzymatic activity, the test compounds (0.1 μM-25 μM) were incubated with cryopreserved human hepatocytes for 10 min in the presence of the specific CYP3A4 probe substrate, midazolam. 1-Hydroxymidazolam was monitored by LC-MS/MS and a decrease in the formation of the metabolite compared to the vehicle control was used to calculate an IC50 value.

58 kinases = assay: Kinase panel (Z′-Lyte, Adapta/Lanthascreen), 58 kinases; type: biochemical; details: for Kinase panel @500 nM hits > 50%: number of the 58 kinases inhibited more than 50% at 500 nM; for Kinase panel @500 nM hits > 80%: number of the 58 kinases inhibited more than 80% at 500 nM
Method: To assess the kinase selectivity of compounds, Z′-Lyte biochemical assay, and Adapta/Lanthascreen binding assays from Life technologies were used according to manufacturer's instructions. Pourcentages of inhibition at 500 nM of test compounds were performed towards 58 kinases: ABL1, ACVR1B (ALK4), AKT2 (PKB beta), AMPK (A1/132/G3), AURKA (Aurora A), AXL, BRAF, BTK, CAMK2B (CaMKII beta), CDK2/cyclin A, CHEK1 (CHK1), CLK1, CSNK1A1 (CK1 alpha 1), CSNK2A1 (CK2 alpha 1), DAPK3 (ZIPK), DYRK1A, EGFR (ErbB1), EPHB3, ERBB2 (HER2), FGFR2, FLT3, FRAP1 (mTOR), GSK3B (GSK3 beta), IGF1R, IKBKB (IKK beta), INSR, IRAK4, JAK2, KDR (VEGFR2), KIT, LCK, MAP2K1 (MEK1), MAPK10 (JNK3), MAPK11 (p38 beta), MAPKAPK2, MARK2, MET (cMet), NEK2, NTRK1 (TRKA), PAK2 (PAK65), PDGFRB (PDGFR beta), PDK1 Direct, PHKG2, PIK3CA/PIK3R1 (p110 alpha/p85 alpha), PIM1, PLK1, PRKACA (PKA), PRKCA (PKC alpha), PTK2 (FAK), RET, ROCK1, RPS6KA1 (RSK1), RPS6KB1 (p70S6K), SRC, STK3 (MST2), SYK, TEK (Tie2), TYRO3 (RSE).

PK experiments in mice = type: in vivo; details: mouse, plasma, male BalbC mice, @20 mpk PO, @1 mpk IV
Method: For intravenous injection, a single 1 mg/kg dose was injected in tail vein and blood was collected at 0.12, 0.25, 0.5, 1, 2, 4, 8 and 24 h after injection. For oral route, a single 20 mg/kg dose was administered, and blood was collected at 0.25, 0.5, 1, 2, 4, 8, 10 and 24 h after gavage. Plasma separated from blood samples was stored at −20° C. until analysis. Vials containing the study samples were retrieved and thawed to room temperature. A volume of 50 μl of sample was added to 200 μl of acetronitrile containing internal standard (tolbutamide; 25 ng/mL) and vortexed for 5 min and centrifuged at 14000 rpm for 5 min at 4° C. 200 μl of supernatant was separated and transferred to HPLC vial for analysis. For prodrug pharmacokinetics, only parent drug was dosed by HPLC.

Caco 2 cell lines = details: Caco-2, pH 7.4
Method: Caco 2 cell lines were used for the in vitro transport studies and were obtained from ATCC. Cells were split every other day at a split ratio of 1:3-1:5 and grown in Dulbecco's Modified Eagle Medium (GlutaMAX I, 4,500 mg/L D-glucose, sodium pyruvate.) supplemented with 10% FBS in the presence of antibiotics. For transport studies, cells were seeded onto polycarbonate Transwell filter membranes (Millipore) at a density of 60,000 cells/well. After 24 h post seeding, changed medium and cultured for another 21 days before transport experiments. For transport studies, donor solutions were prepared by diluting the stock solutions of test compounds in transport medium (HBSS buffer with 10 mM HEPES, pH 7.4). Receiver solutions were the same HBSS buffer with 10 mM HEPES, pH 7.4. The transport of test compounds (5 μM) was measured in duplicate in two directions [apical to basolateral (A→B) and basolateral to apical (B→A)].
The permeability coefficient for membrane transport of test compounds was determined using the following equation: Papp (cm/sec)=(Vr/CO) (1/S) (dC/dt); Papp=apparent permeability, Vr=volume of medium in the receiver chamber, CO=PAR of the test drug in the receiver chamber, S=surface area of monolayer, dC/dt=drug PAR in the receiver chamber with time). Efflux Ratio was defined as: Efflux Ratio=Papp B-A/Papp A-B Bioanalysis was done on LC-MS/MS.

T1 sequence (P28482 whole entry): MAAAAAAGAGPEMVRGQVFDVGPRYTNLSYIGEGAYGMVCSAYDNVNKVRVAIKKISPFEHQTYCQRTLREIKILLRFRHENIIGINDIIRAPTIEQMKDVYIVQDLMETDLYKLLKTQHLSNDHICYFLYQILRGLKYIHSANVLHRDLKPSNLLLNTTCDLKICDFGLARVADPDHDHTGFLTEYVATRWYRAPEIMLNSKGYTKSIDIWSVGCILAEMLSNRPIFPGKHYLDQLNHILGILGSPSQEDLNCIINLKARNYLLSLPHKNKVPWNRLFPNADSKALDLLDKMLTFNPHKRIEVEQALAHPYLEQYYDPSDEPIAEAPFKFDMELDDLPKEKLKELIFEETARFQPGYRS

Compound | IC50 (ERK2 (MAPK1)) [µM] | IC50 [1] [µM] | IC50 (CYP 3A4) [µM] | Kinase panel @500 nM hits > 50% (58 kinases) | Kinase panel @500 nM hits > 80% (58 kinases) | bioavailability (PK experiments in mice; 20 mg/kg) [%] | Cmax (PK experiments in mice) | half-life (PK experiments in mice) [h] | Papp A-B (Caco 2 cell lines) | IC50 (hERG channel) [µM]
CN(C)C[C@H](c1cc(Cl)cc(Cl)c1)n1ccc(-c2c[nH]c3ncc(N4CCOCC4)cc23)cc1=O [Compound no3 (S), (S)-1-(1-(3,5-dichlorophenyl)-2-(dimethylamino)ethyl)-4-(5-morpholino-1H-pyrrolo[2,3-b]pyridin-3-yl)pyridin-2(1H)-one] | 0.0032 | 0.132 | – | 6/58 | 1/58 | – | – | – | – | –
(S)-1-(2-amino-1-(3-chlorophenyl)ethyl)-4-(5-morpholino-1H-pyrrolo[2,3-b]pyridin-3-yl)pyridin-2(1H)-one [Comparative compound A (S), reference compound] | – | – | – | 26/58 | 15/58 | – | – | – | < 10 10^−6 cm/s | –
CN(C)C[C@H](c1cccc(F)c1)n1ccc(-c2c[nH]c3ncc(N4CCOCC4)cc23)cc1=O [Compound no1 (S), (S)-1-(2-(dimethylamino)-1-(3-fluorophenyl)ethyl)-4-(5-morpholino-1H-pyrrolo[2,3-b]pyridin-3-yl)pyridin-2(1H)-one] | 0.0012 | 0.107 | – | 2/58 | 1/58 | – | – | – | – | –
CN(C)C[C@H](c1ccc(Cl)c(Cl)c1)n1ccc(-c2c[nH]c3ncc(N4CCOCC4)cc23)cc1=O [Compound no4 (S), (S)-1-(1-(3,4-dichlorophenyl)-2-(dimethylamino)ethyl)-4-(5-morpholino-1H-pyrrolo[2,3-b]pyridin-3-yl)pyridin-2(1H)-one] | 0.0031 | 0.072 | – | 5/58 | 1/58 | – | – | – | – | –
CN(C)C[C@H](c1cccc(Cl)c1)n1ccc(-c2c[nH]c3ncc(N4CCOCC4)cc23)cc1=O [Compound no2 (S), (S)-1-(1-(3-chlorophenyl)-2-(dimethylamino)ethyl)-4-(5-morpholino-1H-pyrrolo[2,3-b]pyridin-3-yl)pyridin-2(1H)-one] | 0.0021 | 0.035 | – | 10/58 | 1/58 | – | – | – | – | –

The next lines start with results.

IC50 (ERK2 (MAPK1)) [µM] | IC50 [1] [µM] | IC50 (CYP 3A4) [µM] | Kinase panel @500 nM hits > 50% (58 kinases) | Kinase panel @500 nM hits > 80% (58 kinases) | bioavailability (PK experiments in mice; 20 mg/kg) [%] | Cmax (PK experiments in mice) | half-life (PK experiments in mice) [h] | Papp A-B (Caco 2 cell lines) | Compound | IC50 (hERG channel) [µM]
0.0045 | 0.077 | 9.5 | 7/58 | 1/58 | 9.2 | 1730 ng/mL and 3.3 µM | 1.83 | – | CN(C)C[C@H](c1cccc(Br)c1)n1ccc(-c2c[nH]c3ncc(N4CCOCC4)cc23)cc1=O [Compound no5 (S), (S)-1-(1-(3-bromophenyl)-2-(dimethylamino)ethyl)-4-(5-morpholino-1H-pyrrolo[2,3-b]pyridin-3-yl)pyridin-2(1H)-one] | 20.5
0.0022 | 0.064 | – | 7/58 | 1/58 | – | – | – | – | CN(C)C[C@H](c1ccc(F)c(I)c1)n1ccc(-c2c[nH]c3ncc(N4CCOCC4)cc23)cc1=O [Compound no8 (S), (S)-1-(2-(dimethylamino)-1-(4-fluoro-3-iodophenyl)ethyl)-4-(5-morpholino-1H-pyrrolo[2,3-b]pyridin-3-yl)pyridin-2(1H)-one] | –
0.0035 | 0.051 | – | – | – | – | – | – | – | CCN(C)C[C@H](c1cccc(Cl)c1)n1ccc(-c2c[nH]c3ncc(N4CCOCC4)cc23)cc1=O [Compound no15 (S), (S)-1-(1-(3-chlorophenyl)-2-(ethyl(methyl)amino)ethyl)-4-(5-morpholino-1H-pyrrolo[2,3-b]pyridin-3-yl)pyridin-2(1H)-one] | –
0.0045 | 0.008 | – | – | – | – | – | – | – | COCc1cc(Cl)cc([C@@H](CN(C)C)n2ccc(-c3c[nH]c4ncc(N5CCOCC5)cc34)cc2=O)c1 [Compound no23 (S), (S)-1-(1-(3-chloro-5-(methoxymethyl)phenyl)-2-(dimethylamino)ethyl)-4-(5-morpholino-1H-pyrrolo[2,3-b]pyridin-3-yl)pyridin-2(1H)-one] | –
0.0041 | 0.053 | – | 4/58 | 1/58 | – | – | – | – | CN(C)C[C@H](c1ccc(F)c(Br)c1)n1ccc(-c2c[nH]c3ncc(N4CCOCC4)cc23)cc1=O [Compound no7 (S), (S)-1-(1-(3-bromo-4-fluorophenyl)-2-(dimethylamino)ethyl)-4-(5-morpholino-1H-pyrrolo[2,3-b]pyridin-3-yl)pyridin-2(1H)-one] | –
0.0024 | 0.042 | – | – | – | – | – | – | – | CN(C)C[C@H](c1cccc(I)c1)n1ccc(-c2c[nH]c3ncc(N4CCOCC4)cc23)cc1=O [Compound no6 (S), (S)-1-(2-(dimethylamino)-1-(3-iodophenyl)ethyl)-4-(5-morpholino-1H-pyrrolo[2,3-b]pyridin-3-yl)pyridin-2(1H)-one] | –
